Active and inactive are the calls of the source. No cut-off for these calls is given here.
Experiments:
[1] = tested on: Ebolavirus; experiment: Antiviral activity against pseudotyped Ebola virus expressing glycoprotein infected in human A549 cells assessed as inhibition of viral entry incubated for 48 hrs by Neolite reporter gene assay; format: functional, organism-based; settings: Orthoebolavirus, A549, 48 h
[2] = tested on: Marburgvirus; experiment: Antiviral activity against pseudotyped Marburg virus expressing glycoprotein infected in human A549 cells assessed as inhibition of viral entry incubated for 48 hrs by Neolite reporter gene assay; format: functional, organism-based; settings: Orthomarburgvirus, A549, 48 h
[3] = tested on: Zaire ebolavirus; experiment: Antiviral activity against pseudotyped Zaire ebolavirus expressing glycoprotein infected in human A549 cells assessed as inhibition of viral entry incubated for 48 hrs by Neolite reporter gene assay; format: functional, organism-based; settings: A549, 48 h
[4] = tested on: Sudan ebolavirus; experiment: Antiviral activity against pseudotyped Sudan ebolavirus expressing glycoprotein infected in human A549 cells assessed as inhibition of viral entry incubated for 48 hrs by Neolite reporter gene assay; format: functional, organism-based; settings: A549, 48 h
[5] = tested on: Bundibugyo virus; experiment: Antiviral activity against pseudotyped Bundibugyo ebolavirus expressing glycoprotein infected in human A549 cells assessed as inhibition of viral entry incubated for 48 hrs by Neolite reporter gene assay; format: functional, organism-based; settings: A549, 48 h
[6] = tested on: Reston ebolavirus; experiment: Antiviral activity against pseudotyped Reston ebolavirus expressing glycoprotein infected in human A549 cells assessed as inhibition of viral entry incubated for 48 hrs by Neolite reporter gene assay; format: functional, organism-based; settings: A549, 48 h
[7] = tested on: Tai Forest ebolavirus; experiment: Antiviral activity against pseudotyped Tai Forest ebolavirus expressing glycoprotein infected in human A549 cells assessed as inhibition of viral entry incubated for 48 hrs by Neolite reporter gene assay; format: functional, organism-based; settings: A549, 48 h
[8] = tested on: Ebolavirus; experiment: Antiviral activity against wildtype Ebola virus infected in human HeLa cells incubated for 40 hrs by Hoechst 33342 staining based Cytation-1 automated microscopic analysis; format: functional, organism-based; settings: Orthoebolavirus
[9] = tested on: HeLa; experiment: Cytotoxicity against human HeLa cells by Celltiter-Glo luminescent cell viability assay; format: toxicity, cell-based
[10] = Metabolic stability in human liver microsomes assessed as parent compound remaining measured after 60 mins in presence of NADPH by LC-MS/MS analysis; format: ADME, Microsome; settings: read-out: Stability
[11] = Metabolic stability in BALB/c mouse liver microsomes assessed as parent compound remaining measured after 60 mins in presence of NADPH by LC-MS/MS analysis; format: ADME, Microsome; settings: read-out: Stability
[12] = Stability in human plasma assessed as parent compound remaining at 2 uM measured after 60 mins by LC-MS/MS analysis; format: ADME, cell-free; settings: read-out: Stability
[13] = Stability in mouse plasma assessed as parent compound remaining at 2 uM measured after 60 mins by LC-MS/MS analysis; format: ADME, cell-free; settings: read-out: Stability
[14] = molecular target: T1, CYP1A2 (Homo sapiens, UniProt P05177); experiment: Inhibition of CYP1A2 in human liver microsomes using phenacetin as substrate at 10 uM preincubated for 5 mins followed by substrate addition and measured after 20 mins by LC-MS analysis relative to control; format: ADME, Microsome; settings: probe phenacetin, time 25 min
T1 sequence (P05177 whole entry): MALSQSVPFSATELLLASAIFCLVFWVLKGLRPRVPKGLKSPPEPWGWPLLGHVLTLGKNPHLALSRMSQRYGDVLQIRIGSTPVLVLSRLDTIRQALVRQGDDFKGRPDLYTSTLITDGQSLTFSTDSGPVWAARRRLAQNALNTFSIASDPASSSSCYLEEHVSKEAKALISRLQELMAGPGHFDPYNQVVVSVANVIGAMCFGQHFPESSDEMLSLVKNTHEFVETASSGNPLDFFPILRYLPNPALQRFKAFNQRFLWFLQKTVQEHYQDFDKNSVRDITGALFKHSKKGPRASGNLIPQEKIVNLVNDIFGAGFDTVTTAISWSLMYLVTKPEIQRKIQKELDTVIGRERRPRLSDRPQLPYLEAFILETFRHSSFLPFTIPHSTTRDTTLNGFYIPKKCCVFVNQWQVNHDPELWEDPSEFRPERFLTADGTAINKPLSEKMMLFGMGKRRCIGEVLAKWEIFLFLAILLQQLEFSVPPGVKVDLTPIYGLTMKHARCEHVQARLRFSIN

[15] = molecular target: CYP2C9 (Homo sapiens, UniProt P11712); experiment: Inhibition of CYP2C9 in human liver microsomes using tolbutamide as substrate at 10 uM preincubated for 5 mins followed by substrate addition and measured after 20 mins by LC-MS analysis relative to control; format: ADME, Microsome; settings: probe tolbutamide, time 25 min
[16] = molecular target: CYP2D6 (Homo sapiens, UniProt P10635); experiment: Inhibition of CYP2D6 in human liver microsomes using dextromethorphan as substrate at 10 uM preincubated for 5 mins followed by substrate addition and measured after 20 mins by LC-MS analysis relative to control; format: ADME, Microsome; settings: probe dextromethorphan, time 25 min
[17] = molecular target: CYP3A4 (Homo sapiens, UniProt P08684); experiment: Inhibition of CYP3A4 in human liver microsomes using midazolam as substrate at 10 uM preincubated for 5 mins followed by substrate addition and measured after 20 mins by LC-MS analysis relative to control; format: ADME, Microsome; settings: probe midazolam, time 25 min
[18] = molecular target: Voltage-gated inwardly rectifying potassium channel KCNH2 (Homo sapiens, UniProt Q12809); experiment: Inhibition of human ERG; format: toxicity
[19] = Toxicity in female C57BL/6J mouse assessed as adverse effect at 25 to 50 mg/kg, ip; format: organism-based; settings: in vivo, dose 25-50 mg/kg
[20] = Half-life in female C57BL/6J mouse at 25 mg/kg, ip; format: ADME, organism-based; settings: in vivo
[21] = Tmax in female C57BL/6J mouse at 25 mg/kg, ip; format: ADME, organism-based; settings: in vivo
[22] = Cmax in female C57BL/6J mouse at 25 mg/kg, ip; format: ADME, organism-based; settings: in vivo
[23] = AUC in female C57BL/6J mouse at 25 mg/kg, ip; format: ADME, organism-based; settings: in vivo
[24] = Clearance in female C57BL/6J mouse at 25 mg/kg, ip; format: ADME, organism-based; settings: in vivo
[25] = Half-life in female C57BL/6J mouse at 50 mg/kg, ip; format: ADME, organism-based; settings: in vivo
[26] = Tmax in female C57BL/6J mouse at 50 mg/kg, ip; format: ADME, organism-based; settings: in vivo
[27] = Cmax in female C57BL/6J mouse at 50 mg/kg, ip; format: ADME, organism-based; settings: in vivo
[28] = AUC in female C57BL/6J mouse at 50 mg/kg, ip; format: ADME, organism-based; settings: in vivo
[29] = Clearance in female C57BL/6J mouse at 50 mg/kg, ip; format: ADME, organism-based; settings: in vivo
[30] = tested on: Influenza A virus; experiment: Antiviral activity against pseudotyped Influenza A virus A/Goose/Qinghai/59/05(H5N1) infected in human A549 cells assessed as inhibition of viral entry incubated for 48 hrs by Neolite reporter gene assay; format: functional, organism-based
[31] = tested on: Vesicular stomatitis virus; experiment: Antiviral activity against pseudotyped vesicular stomatitis virus expressing glycoprotein infected in human A549 cells assessed as inhibition of viral entry incubated for 48 hrs by Neolite reporter gene assay; format: functional, organism-based
[32] = Selectivity index, ratio of CC50 for human A549 cells to EC50 for pseudotyped Ebola virus expressing glycoprotein infected in human A549 cells; format: toxicity, cell-based; settings: read-out: Ratio CC50/EC50
[33] = Selectivity index, ratio of CC50 for human HeLa cells to EC50 for antiviral activity against wildtype Ebolavirus infected in human HeLa cells; format: toxicity, cell-based; settings: read-out: Ratio CC50/EC50
[34] = tested on: A549; experiment: Induction of phospholipidosis in human A549 cells at 10 uM incubated for 48 hrs by Hoechst 33342 staining based fluorescence imaging analysis; format: functional, cell-based

CYP2C9, sequence (P11712 whole entry): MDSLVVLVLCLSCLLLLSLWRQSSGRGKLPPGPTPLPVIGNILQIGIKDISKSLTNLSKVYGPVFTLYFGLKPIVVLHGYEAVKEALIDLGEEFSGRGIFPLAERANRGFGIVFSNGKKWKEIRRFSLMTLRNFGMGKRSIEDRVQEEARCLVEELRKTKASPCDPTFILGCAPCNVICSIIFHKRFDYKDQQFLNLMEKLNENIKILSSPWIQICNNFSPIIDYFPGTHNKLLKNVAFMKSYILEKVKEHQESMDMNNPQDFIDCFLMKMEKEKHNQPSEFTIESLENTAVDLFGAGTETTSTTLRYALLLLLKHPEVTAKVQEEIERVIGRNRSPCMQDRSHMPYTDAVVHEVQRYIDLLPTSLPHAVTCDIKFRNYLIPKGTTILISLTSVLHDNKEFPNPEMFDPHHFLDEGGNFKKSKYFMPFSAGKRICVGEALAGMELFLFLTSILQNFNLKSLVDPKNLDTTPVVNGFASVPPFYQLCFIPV
Voltage-gated inwardly rectifying potassium channel KCNH2, sequence (Q12809 whole entry): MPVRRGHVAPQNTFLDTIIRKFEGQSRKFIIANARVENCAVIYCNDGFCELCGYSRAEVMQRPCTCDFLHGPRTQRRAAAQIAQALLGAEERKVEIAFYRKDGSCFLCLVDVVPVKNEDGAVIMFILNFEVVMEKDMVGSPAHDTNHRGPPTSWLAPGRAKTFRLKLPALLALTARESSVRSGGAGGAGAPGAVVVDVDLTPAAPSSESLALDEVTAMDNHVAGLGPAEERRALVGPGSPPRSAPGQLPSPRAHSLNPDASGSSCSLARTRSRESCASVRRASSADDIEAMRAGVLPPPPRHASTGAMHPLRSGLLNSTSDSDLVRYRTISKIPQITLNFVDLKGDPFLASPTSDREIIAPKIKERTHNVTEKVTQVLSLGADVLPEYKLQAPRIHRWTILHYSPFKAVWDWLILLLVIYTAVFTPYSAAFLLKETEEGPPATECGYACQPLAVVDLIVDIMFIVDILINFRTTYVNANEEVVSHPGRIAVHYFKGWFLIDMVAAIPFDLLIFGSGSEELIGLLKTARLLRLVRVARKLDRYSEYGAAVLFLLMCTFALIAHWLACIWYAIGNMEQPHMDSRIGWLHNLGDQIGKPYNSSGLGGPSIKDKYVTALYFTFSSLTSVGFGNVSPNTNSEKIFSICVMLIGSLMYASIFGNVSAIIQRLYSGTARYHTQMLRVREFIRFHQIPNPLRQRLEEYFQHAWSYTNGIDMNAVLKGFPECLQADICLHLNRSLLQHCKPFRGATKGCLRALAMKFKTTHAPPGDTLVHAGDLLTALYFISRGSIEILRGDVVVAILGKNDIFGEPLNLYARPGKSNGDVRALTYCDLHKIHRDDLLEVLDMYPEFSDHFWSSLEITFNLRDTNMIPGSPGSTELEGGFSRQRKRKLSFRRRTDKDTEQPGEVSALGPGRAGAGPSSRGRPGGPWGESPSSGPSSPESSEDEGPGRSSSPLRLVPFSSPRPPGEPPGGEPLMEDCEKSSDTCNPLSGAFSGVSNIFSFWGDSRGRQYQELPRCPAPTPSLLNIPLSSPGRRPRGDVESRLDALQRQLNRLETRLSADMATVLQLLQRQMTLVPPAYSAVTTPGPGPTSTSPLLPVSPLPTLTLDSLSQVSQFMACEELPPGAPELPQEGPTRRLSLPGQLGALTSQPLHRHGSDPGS
CYP2D6, sequence (P10635 whole entry): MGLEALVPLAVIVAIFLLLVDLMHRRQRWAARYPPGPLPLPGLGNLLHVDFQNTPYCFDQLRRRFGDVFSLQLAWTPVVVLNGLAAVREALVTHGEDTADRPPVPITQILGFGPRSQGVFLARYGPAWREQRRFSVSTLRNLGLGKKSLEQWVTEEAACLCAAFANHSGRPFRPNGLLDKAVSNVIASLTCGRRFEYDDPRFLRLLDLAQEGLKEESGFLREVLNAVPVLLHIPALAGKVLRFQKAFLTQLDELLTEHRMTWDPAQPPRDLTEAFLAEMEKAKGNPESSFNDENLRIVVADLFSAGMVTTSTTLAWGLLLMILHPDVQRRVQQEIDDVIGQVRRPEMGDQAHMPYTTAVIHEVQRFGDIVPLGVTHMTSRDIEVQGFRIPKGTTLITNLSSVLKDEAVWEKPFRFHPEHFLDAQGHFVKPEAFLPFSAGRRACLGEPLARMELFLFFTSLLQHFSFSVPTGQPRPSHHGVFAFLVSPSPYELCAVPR
CYP3A4, sequence (P08684 whole entry): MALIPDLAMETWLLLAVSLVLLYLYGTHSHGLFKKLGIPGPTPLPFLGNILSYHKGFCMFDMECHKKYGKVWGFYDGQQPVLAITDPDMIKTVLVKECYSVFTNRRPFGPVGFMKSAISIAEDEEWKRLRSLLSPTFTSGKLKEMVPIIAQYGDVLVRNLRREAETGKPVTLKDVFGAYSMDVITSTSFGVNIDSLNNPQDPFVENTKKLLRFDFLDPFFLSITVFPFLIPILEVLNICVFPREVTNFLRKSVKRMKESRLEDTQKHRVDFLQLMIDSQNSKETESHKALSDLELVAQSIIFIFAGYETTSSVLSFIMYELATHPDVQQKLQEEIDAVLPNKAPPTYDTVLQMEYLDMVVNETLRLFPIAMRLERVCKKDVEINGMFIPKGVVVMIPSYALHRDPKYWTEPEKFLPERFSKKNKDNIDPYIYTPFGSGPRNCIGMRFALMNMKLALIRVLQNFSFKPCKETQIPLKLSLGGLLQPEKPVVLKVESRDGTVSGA

Row | Compound | EC50 [1] | EC50 [2] | EC50 [3] | EC50 [4] | EC50 [5] | EC50 [6] | EC50 [7] | EC50 [8] | CC50 [9] | remaining at 1 h [10] | remaining at 1 h [11] | remaining at 1 h, 2 µM [12] | remaining at 1 h, 2 µM [13] | inhibition at 20 min, 10 µM [14] | inhibition at 20 min, 10 µM [15] | inhibition at 20 min, 10 µM [16] | IC50 [18] | half-life [20] | Tmax [21] | Cmax [22] | further results
1 | O=C(Nc1ccc(N2CCC3(CCC3)CC2)c(C(F)(F)F)c1)c1ccc(CN2C[C@@H]3C[C@H]2CO3)nc1 | 0.12 µM | 0.68 µM | 0.12 µM | 2.14 µM | 0.84 µM | 0.3 µM | 0.29 µM | 0.44 µM | 19.1 µM | 60% | 77% | ~100% | 90% | 5.4% | 66.4% | 35.2% | 1.5 µM | 3.4 h | 0.5 h | 2170 ng/mL | inhibition at 20 min, 10 µM [17]: 4.9%; Activity [19]: Non-toxic; AUC [23]: 14300 ng·h/mL; CL/F [24]: 29.2 mL/min/kg; half-life [25]: 4.8 h; Tmax [26]: 1 h; Cmax [27]: 6790 ng/mL; AUC [28]: 34400 ng·h/mL; CL/F [29]: 24.3 mL/min/kg; inhibition [30]: Weak_effect; inhibition [31]: Weak_effect
2 | O=C(Nc1ccc(N2CCC3(CCC3)CC2)c(C(F)(F)F)c1)c1ccc(C(=O)N2C[C@@H]3C[C@H]2CO3)nc1 | 0.16 µM | 2.24 µM | 0.16 µM | 0.89 µM | 0.21 µM | 0.21 µM | 0.11 µM | 0.73 µM | 47.7 µM | 83.6% | 84% | ~100% | 97% | 13.5% | 56.6% | 24.9% | 9.4 µM | 1.4 h | 1.7 h | 5370 ng/mL | selectivity ratio [32]: 258; selectivity ratio [33]: 65; AUC [23]: 20700 ng·h/mL; CL/F [24]: 20.2 mL/min/kg; half-life [25]: 1.9 h; Tmax [26]: 0.7 h; Cmax [27]: 14600 ng/mL; AUC [28]: 57800 ng·h/mL; CL/F [29]: 14.4 mL/min/kg; inhibition [30]: Weak_effect; inhibition [31]: Weak_effect; Activity [34]: inactive
